Measured values published in patent US20090233966A1, “Analogues of the Azinomycins as Anti-Tumour Agents and as Prodrugs” (School of Pharmacy, University of London, priority 2005, published 2009).
Read-outs that look alike come from different tables or passages of the source.

Legend:
[1] = tested on: U2-OS human osteosarcoma cell line; assay: Cytotoxicity in U2-OS cell line; format: cell-based; details: for cytotoxicity (in words): initial cytotoxicity studies; for IC50: read-out: IC50 (nM) of compound
Excerpt: (§1) Initial cytotoxicity studies were in the performed U2-OS and HoeR cell lines. The U2-OS is a human osteosarcoma cell line and HoeR is a DNA minor groove binder-resistant variant of this. Both are available from the American Type Culture Collection (ATCC), Dr. Raymon H. 10801 University Boulevard, Manassas, Va., 20110-2209, USA.

[2] = tested on: HoeR (Hoechst415 resistant version of U2-OS); assay: Cytotoxicity in HoeR cell line; format: cell-based, human; details: for cytotoxicity (in words): initial cytotoxicity studies; for IC50: read-out: IC50 (nM) of compound
Excerpt: as §1

NCl 60 cell panel = assay: NCI 60 cell line panel antitumour activity (whole panel); format: cell-based, human; details: wide range of human tumour cell lines
Excerpt: Examples 6 and 7 make use of the NCl 60 cell panel. This is an in vitro cell line screening project providing direct support to the National Cancer Institute's USA Developmental Therapeutic Programme for anti cancer discovery. The methodolgy for the cell line's operation is described by Boyd et al in Drug Development Research 1995, 34, 91-109.

[3] = tested on: wild type CHO cells (absent in CYP3A4); assay: Cytotoxicity on wild type CHO cells; format: cell-based; details: FIG. 2(b)
CYP3A4 CHO cells = assay: Cytotoxicity on CHO cells transfected with CYP3A4; format: cell-based; details: FIG. 2(b)

Row | Structure (SMILES) | cytotoxicity (in words) [1] | IC50 [1] [nM] | cytotoxicity (in words) [2] | IC50 [2] [nM] | antitumour activity in the NCl 60 cell line panel (in words) (NCl 60 cell panel) | IC50 ([1]; Homo sapiens, U2OS) [nM] | IC50 ([2]; Homo sapiens, U2OS) [nM] | cytotoxicity (in words) [3] | cytotoxicity (in words) (CYP3A4 CHO cells)
1 | COc1cc(C(=O)OC(C(N)=O)[C@]2(C)CO2)c2ccccc2c1 (stereo partly drawn) [(2R, 3R)-1] | good activity | 40 | good activity | 40 |  |  |  |  | 
2 | COc1cc(C(=O)O[C@H](C(=O)NCCN2CCCC(Cl)C2)C2(C)CO2)c2cccc(C)c2c1 (some centres unmarked) |  |  |  |  | excellent anti-tumour activity |  |  |  | 
3 | COc1cc(C(=O)OC(C(N)=O)[C@]2(C)CO2)c2ccccc2c1 (stereo partly drawn) [(2S, 3R)-1] | good activity | 120 | good activity | 121 |  |  |  |  | 
4 | C=C(C)[C@@H](OC(=O)c1cc(OC)cc2c(C)cccc12)C(N)=O [(2R)-2] | not cytotoxic |  | not cytotoxic |  |  | > 10000 | > 10000 |  | 
5 | COc1cc(C(=O)OC(C(N)=O)[C@]2(C)CO2)c2ccccc2c1 (stereo partly drawn) [(2R, 3S)-1] | good activity | 40 | good activity | 45 |  |  |  |  | 
6 | COc1cc(C(=O)OC(C(N)=O)[C@]2(C)CO2)c2ccccc2c1 (stereo partly drawn) [(2S, 3S)-1] | good activity | 15 | good activity | 14 |  |  |  | high cytotoxicity | high cytotoxicity
